Experimental data: ChEMBL document CHEMBL4385629, “Evaluation of quinoxaline compounds as ligands of a site adjacent to S2 (AS2) of cruzain” (Bioorg Med Chem Lett, 2019)
The source made the active and inactive calls. The calls are words filed in the database; no cut-off is given here.

Tests used:
[1] = biological target: Cruzipain (Trypanosoma cruzi) (UniProt P25779); test: Inhibition of Trypanosoma cruzi cruzain assessed as reduction in 7-amino-4-methylcoumarin production using Z-FR-AMC as substrate and measured up to 60 mins by fluorescence based method
[2] = biological target: Cruzipain (Trypanosoma cruzi) (UniProt P25779); test: Activation of Trypanosoma cruzi cruzain assessed as increase in enzyme activity using Z-FR-AMC as substrate at 0.1 mM incubated for 15 mins in dark and measured at 5 mins interval for 60 mins by fluorescence based method relative to control

Chain of Cruzipain (Trypanosoma cruzi) (P25779 123-467 limits assumed): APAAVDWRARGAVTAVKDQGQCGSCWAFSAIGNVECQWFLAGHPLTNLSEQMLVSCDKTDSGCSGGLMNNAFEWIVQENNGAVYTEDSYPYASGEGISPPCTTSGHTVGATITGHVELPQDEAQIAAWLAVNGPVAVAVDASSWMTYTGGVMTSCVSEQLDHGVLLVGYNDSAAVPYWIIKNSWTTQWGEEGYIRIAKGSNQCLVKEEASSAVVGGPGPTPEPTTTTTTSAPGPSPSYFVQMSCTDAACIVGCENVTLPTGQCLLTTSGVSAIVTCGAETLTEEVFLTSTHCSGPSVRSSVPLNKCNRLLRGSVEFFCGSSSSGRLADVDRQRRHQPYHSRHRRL

inhibition [1] | fold change (FC) [2] | Compound
inactive | 10 | O=C(O)CCc1nc2ccccc2[nH]c1=O
inactive | 15 | O=C1CNc2ccccc2N1
inactive | 3 | Oc1nc2ccccc2nc1O
